Measured values: PMC5128008, “Antimicrobial activity and stability of the D-amino acid substituted derivatives of antimicrobial peptide polybia-MPI” (AMB Express, 2016)
In brackets after ≈: the same amount, converted by molar mass. Where a SMILES comes first, the peptide text is derived from it. Where no end group is shown, it is not given here. [ ]: non-standard residue; d: D form.

Columns and labels:
[1] = tested on: Bacillus subtilis (ATCC 23857); assay: MIC, broth microdilution; type: cell-based; details: Mueller–Hinton broth, 2 × 10^4 cfu/ml, peptide 1 to 256 µM, 18 h, 37 °C, visible turbidity, triplicate
Protocol: (§1) The minimal inhibitory concentration (MIC) of the peptides was measured in triplicate by the standard broth microdilution method (Peterson et al. [1980]; Wang et al. [2012]). In brief, bacteria/fungi were cultured overnight to mid-logarithmic-phase in Mueller–Hinton broth (MHB)/Sabouraud dextrose broth. The cultures were diluted to a final concentration of 2 × 10^4 cfu/ml in fresh Mueller–Hinton broth (MHB)/Sabouraud dextrose broth. Each well of 96-well propylene microtitre plates was filled with 100 µl cell suspension and 100 μl peptide solution of twofold diluted serially. And the final concentrations of peptide mixtures ranged from 1 to 256 µM. Controls were done without peptides. After 18 h of incubation at 37 °C (bacteria)/35 °C (fungi), the minimal inhibitory concentration (MIC) of the peptides was evaluated by visible turbidity in each well.

[2] = tested on: Candida albicans ATCC (ATCC 14053); assay: MIC, broth microdilution; type: cell-based; details: Candida albicans (ATCC 14053), Sabouraud dextrose broth, 2 × 10^4 cfu/ml, peptide 1 to 256 µM, 18 h, 35 °C, visible turbidity, triplicate
Protocol: as §1

[3] = tested on: Candida glabrata ATCC (ATCC 2001); assay: MIC, broth microdilution; type: cell-based; details: Candida glabrata (ATCC 2001), Sabouraud dextrose broth, 2 × 10^4 cfu/ml, peptide 1 to 256 µM, 18 h, 35 °C, visible turbidity, triplicate
Protocol: as §1

[4] = tested on: Candida parapsilosis (ATCC 22019); assay: MIC, broth microdilution; type: cell-based; details: Sabouraud dextrose broth, 2 × 10^4 cfu/ml, peptide 1 to 256 µM, 18 h, 35 °C, visible turbidity, triplicate
Protocol: as §1

[5] = tested on: Candida tropicalis (ATCC 750); assay: MIC, broth microdilution; type: cell-based; details: Sabouraud dextrose broth, 2 × 10^4 cfu/ml, peptide 1 to 256 µM, 18 h, 35 °C, visible turbidity, triplicate
Protocol: as §1

E. coli (ATCC 2592) = assay: MIC, broth microdilution; type: cell-based; details: Mueller–Hinton broth, 2 × 10^4 cfu/ml, peptide 1 to 256 µM, 18 h, 37 °C, visible turbidity, triplicate
Protocol: as §1

[6] = tested on: Pseudomonas aeruginosa (ATCC 27853); assay: MIC, broth microdilution; type: cell-based; details: Mueller–Hinton broth, 2 × 10^4 cfu/ml, peptide 1 to 256 µM, 18 h, 37 °C, visible turbidity, triplicate
Protocol: as §1

[7] = tested on: Staphylococcus aureus (ATCC 29213); assay: MIC, broth microdilution; type: cell-based; details: Mueller–Hinton broth, 2 × 10^4 cfu/ml, peptide 1 to 256 µM, 18 h, 37 °C, visible turbidity, triplicate
Protocol: as §1

[8] = tested on: Staphylococcus epidermidis (ATCC 12228); assay: MIC, broth microdilution; type: cell-based; details: Mueller–Hinton broth, 2 × 10^4 cfu/ml, peptide 1 to 256 µM, 18 h, 37 °C, visible turbidity, triplicate
Protocol: as §1

sakazakii (ATCC 29544) [9] = assay: MIC, broth microdilution; type: cell-based; details: Mueller–Hinton broth, 2 × 10^4 cfu/ml, peptide 1 to 256 µM, 18 h, 37 °C, visible turbidity, triplicate
Protocol: as §1

[10] = tested on: Bacillus subtilis (ATCC23857); assay: MBC, plating after MIC incubation; type: cell-based; details: 50 µl aliquots from MIC wells onto agar plates, overnight 37 °C, lowest concentration reducing CFUs at least 99.9%
Protocol: as §1
(§2) The minimal bactericidal concentrations (MBCs) and minimum fungicidal concentration (MFCs) of the peptides was determined at the end of the incubation period by transferring 50 µl aliquots onto agar plates and incubated overnight at 37 °C/35 °C. The MBC/MFC was set as the lowest concentration of the number of CFUs that reduced at least 99.9%.

E. coli (ATCC2592) = assay: MBC, plating after MIC incubation; type: cell-based; details: 50 µl aliquots from MIC wells onto agar plates, overnight 37 °C, lowest concentration reducing CFUs at least 99.9%
Protocol: as §1, §2

[11] = tested on: E. coli (ML-35) (ATCC43827); assay: MBC, plating after MIC incubation; type: cell-based; details: 50 µl aliquots from MIC wells onto agar plates, overnight 37 °C, lowest concentration reducing CFUs at least 99.9%
Protocol: as §1, §2

[12] = tested on: Pseudomonas aeruginosa (ATCC27853); assay: MBC, plating after MIC incubation; type: cell-based; details: 50 µl aliquots from MIC wells onto agar plates, overnight 37 °C, lowest concentration reducing CFUs at least 99.9%
Protocol: as §1, §2

[13] = tested on: Staphylococcus aureus (ATCC29213); assay: MBC, plating after MIC incubation; type: cell-based; details: 50 µl aliquots from MIC wells onto agar plates, overnight 37 °C, lowest concentration reducing CFUs at least 99.9%
Protocol: as §1, §2

[14] = tested on: Staphylococcus epidermidis (ATCC 12228); assay: MBC, plating after MIC incubation; type: cell-based; details: 50 µl aliquots from MIC wells onto agar plates, overnight 37 °C, lowest concentration reducing CFUs at least 99.9%
Protocol: as §1, §2

sakazakii (ATCC 29544) [15] = assay: MBC, plating after MIC incubation; type: cell-based; details: 50 µl aliquots from MIC wells onto agar plates, overnight 37 °C, lowest concentration reducing CFUs at least 99.9%
Protocol: as §1, §2

C. albicans (ATCC 14053) = assay: MFC, plating after MIC incubation; type: cell-based; details: 50 µl aliquots from MIC wells onto agar plates, overnight 35 °C, lowest concentration reducing CFUs at least 99.9%
Protocol: as §1, §2

C. glabrata (ATCC 2001) = assay: MFC, plating after MIC incubation; type: cell-based; details: 50 µl aliquots from MIC wells onto agar plates, overnight 35 °C, lowest concentration reducing CFUs at least 99.9%
Protocol: as §1, §2

C. krusei (ATCC 6258) = assay: MFC, plating after MIC incubation; type: cell-based; details: 50 µl aliquots from MIC wells onto agar plates, overnight 35 °C, lowest concentration reducing CFUs at least 99.9%
Protocol: as §1, §2

[16] = tested on: C. parapsilosis (ATCC 22019); assay: MFC, plating after MIC incubation; type: cell-based; details: 50 µl aliquots from MIC wells onto agar plates, overnight 35 °C, lowest concentration reducing CFUs at least 99.9%
Protocol: as §1, §2

C.tropicalis (ATCC 750) = assay: MFC, plating after MIC incubation; type: cell-based; details: 50 µl aliquots from MIC wells onto agar plates, overnight 35 °C, lowest concentration reducing CFUs at least 99.9%
Protocol: as §1, §2

trypsin = assay: RP-HPLC analysis of stability to trypsin; type: in vitro ADME; details: peptide 10 mM, trypsin 0.2 mg/ml, 37 °C, 0 and 360 min, TFA/acetonitrile precipitation, Fig. 7
Protocol: (§3) The stability of polybia-MPI and its analogues was assayed with trypsin or chymotrypsin in a volume ratio of 1:15 (peptide:trypsin) (Choi et al. [2013]; Hamamoto et al. [2002]; Molhoek et al. [2011]). Peptides at the concentration of 10 mM were incubated with trypsin or chymotrypsin (0.2 mg/ml) at 37 °C. 40 µl samples of the incubations were taken for the time of 0 and 360 min, respectively. Then, the samples were mixed with 80 µl of 15% trifluoroacetic acid (TFA) and 80 µl acetonitrile which incubated at 4 °C for at least 15 min to precipitate proteins. The supernatant was collected of each sample after centrifugation at 13,000 rpm for 10 min and were detected with reverse phase high performance liquid chromatography (RP-HPLC) analysis.
(§4) Fig. 7 HPLC analysis of the susceptibility of polybia-MPI, D-MPI and D-lys-MPI to trypsin and chymotrypsin. Peptides at the concentration of 10 mM were incubated with trypsin or chymotrypsin at 37 °C. At the determined time interval, samples were taken and mixed with trifluoroacetic acid (TFA) and acetonitrile to precipitate proteins, respectively. Then the samples were detected with reverse phase high performance liquid chromatography (RP-HPLC) analysis

chymotrypsin = assay: RP-HPLC analysis of stability to chymotrypsin; type: in vitro ADME; details: peptide 10 mM, chymotrypsin 0.2 mg/ml, 37 °C, 0 and 360 min, TFA/acetonitrile precipitation, Fig. 7
Protocol: as §3, §4

[17] = RP-HPLC analysis of stability to proteases in human serum; type: in vitro ADME; details: method details not given
Source text: In the present study, HPLC was used to determine the stability of polybia-MPI, D-lys-MPI and D-MPI to trypsin, chymotrypsin and proteases in human serum.

(ATCC 700603) = details: ATCC 700603, 18 h

Compound | MIC [1] [µM] | MIC [2] [µM] | MIC [3] [µM] | MIC [4] [µM] | MIC [5] [µM] | MIC (E. coli (ATCC 2592)) [µM] | MIC [6] [µM] | MIC [7] [µM] | MIC [8] [µM] | MIC (sakazakii (ATCC 29544) [9]) [µM] | MBC/MFC [10] [µM] | MBC/MFC (E. coli (ATCC2592)) [µM] | MBC/MFC [11] [µM] | MBC/MFC [12] [µM] | MBC/MFC [13] [µM] | MBC/MFC [14] [µM] | MBC/MFC (sakazakii (ATCC 29544) [15]) [µM] | MBC/MFC (C. albicans (ATCC 14053)) [µM] | MBC/MFC (C. glabrata (ATCC 2001)) [µM] | MBC/MFC (C. krusei (ATCC 6258)) [µM] | also measured
CC[C@H](C)[C@H](N)C(=O)N[C@@H](CC(=O)O)C(=O)N[C@@H](Cc1c[nH]c2ccccc12)C(=O)N[C@H](CCCCN)C(=O)N[C@H](CCCCN)C(=O)N[C@@H](CC(C)C)C(=O)N[C@@H](CC(C)C)C(=O)N[C@@H](CC(=O)O)C(=O)N[C@@H](C)C(=O)N[C@@H](C)C(=O)N[C@H](CCCCN)C(=O)N[C@@H](CCC(N)=O)C(=O)N[C@H](C(=O)N[C@@H](CC(C)C)C(N)=O)[C@@H](C)CC [D-lys-MPI] (H-IDW[dK][dK]LLDAA[dK]QIL-NH2) | >256 | 256 (≈ 423 µg/mL) | 128 (≈ 212 µg/mL) | >256 | 64 (≈ 106 µg/mL) | >256 | >256 | >256 | 256 (≈ 423 µg/mL) | >256 | >256 | >256 | >256 | >256 | >256 | >256 | >256 | >256 | 256 (≈ 423 µg/mL) | 256 (≈ 423 µg/mL) | MBC/MFC [16]: >256 µM; MBC/MFC (C.tropicalis (ATCC 750)): 128 µM (≈ 212 µg/mL); susceptibility to trypsin by HPLC profile (trypsin): not or only partly degraded; susceptibility to chymotrypsin by HPLC profile (chymotrypsin): not or only partly degraded; susceptibility to proteases in human serum by HPLC profile [17]: not or only partly degraded; MBC/MFC ((ATCC 700603)): >256 µM
CC[C@@H](C)[C@@H](N)C(=O)N[C@H](CC(=O)O)C(=O)N[C@H](Cc1c[nH]c2ccccc12)C(=O)N[C@H](CCCCN)C(=O)N[C@H](CCCCN)C(=O)N[C@H](CC(C)C)C(=O)N[C@H](CC(C)C)C(=O)N[C@H](CC(=O)O)C(=O)N[C@H](C)C(=O)N[C@H](C)C(=O)N[C@H](CCCCN)C(=O)N[C@H](CCC(N)=O)C(=O)N[C@@H](C(=O)N[C@H](CC(C)C)C(N)=O)[C@H](C)CC [D-MPI] (H-[dI][dD][dW][dK][dK][dL][dL][dD][dA][dA][dK][dQ][dI][dL]-NH2) | 8 (≈ 13.2 µg/mL) | 16 (≈ 26.5 µg/mL) | 16 (≈ 26.5 µg/mL) | 32 (≈ 52.9 µg/mL) | 16 (≈ 26.5 µg/mL) | 16 (≈ 26.5 µg/mL) | 64 (≈ 106 µg/mL) | 16 (≈ 26.5 µg/mL) | 16 (≈ 26.5 µg/mL) | 32 (≈ 52.9 µg/mL) | 8 (≈ 13.2 µg/mL) | 16 (≈ 26.5 µg/mL) | 64 (≈ 106 µg/mL) | 128 (≈ 212 µg/mL) | 64 (≈ 106 µg/mL) | 128 (≈ 212 µg/mL) | 64 (≈ 106 µg/mL) | 16 (≈ 26.5 µg/mL) | 32 (≈ 52.9 µg/mL) | 8 (≈ 13.2 µg/mL) | MBC/MFC [16]: 32 µM (≈ 52.9 µg/mL); MBC/MFC (C.tropicalis (ATCC 750)): 16 µM (≈ 26.5 µg/mL); susceptibility to trypsin by HPLC profile (trypsin): not or only partly degraded; susceptibility to chymotrypsin by HPLC profile (chymotrypsin): not or only partly degraded; susceptibility to proteases in human serum by HPLC profile [17]: not or only partly degraded; MBC/MFC ((ATCC 700603)): 128 µM (≈ 212 µg/mL)
IDWKKLLDAAKQIL-NH2 [Polybia-MPI] | 8 | 16 | 8 | 64 | 8 | 32 | 128 | 32 | 32 | 64 | 8 | 32 | 256 | >256 | 128 | 32 | 64 | 16 | 32 | 16 | MBC/MFC [16]: 128 µM; MBC/MFC (C.tropicalis (ATCC 750)): 32 µM; susceptibility to trypsin by HPLC profile (trypsin): susceptible; susceptibility to chymotrypsin by HPLC profile (chymotrypsin): susceptible; susceptibility to proteases in human serum by HPLC profile [17]: susceptible; MBC/MFC ((ATCC 700603)): 256 µM
